Laboratory results reported in patent publication US20070154579A1, “Morinda Citrifolia Based Formulation And Methods For Weight Management” (priority 2005, published 2007).
“Also recorded” adds a separate entry of the source. Like-named read-outs stand apart in the source and are kept apart here. Square brackets hold non-standard residues; d marks the D form. Peptide text beside a SMILES is read from it. Nle = CCCC[C@H](N)C(=O)O; βAla = NCCC(=O)O

Experiments:
Bombesin BB3 [1] = molecular target: T1, Bombesin BB3 (Homo sapiens, UniProt P32247); assay: Bombesin BB3 radioligand binding; details: batch 147476; read-out: Concurrent IC50 (reference compound)
T1 construct: expressed in transfected cells; host or cells: Balb 3T3 cells
T1 sequence (P32247 1-399): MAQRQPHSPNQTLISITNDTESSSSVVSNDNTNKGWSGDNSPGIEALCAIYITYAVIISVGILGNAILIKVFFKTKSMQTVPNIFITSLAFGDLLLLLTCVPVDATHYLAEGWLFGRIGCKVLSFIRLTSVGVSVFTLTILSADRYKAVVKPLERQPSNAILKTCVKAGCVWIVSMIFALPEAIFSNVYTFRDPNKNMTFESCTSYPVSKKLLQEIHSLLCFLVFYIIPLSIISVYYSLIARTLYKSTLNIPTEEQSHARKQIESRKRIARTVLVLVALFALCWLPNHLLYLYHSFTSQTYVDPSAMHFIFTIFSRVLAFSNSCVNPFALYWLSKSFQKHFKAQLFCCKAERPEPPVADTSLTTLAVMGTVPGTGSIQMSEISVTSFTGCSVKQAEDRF
Protocol: The effects of juice from Morinda Citrifolia (noni) on metabolic rate were analyzed by analyzing the bombesin response. “TNJ” refers to Morinda citrifolia juice processed according to this invention and commericially available as […] NONI® juice, “Sample #100” is a Noni concentrate and “TNCMP1” refers to Morinda citrifolia evaporative concentrate. The percentage of concentration represents the concentration strength of the particular concentrate tested; that is, the strength of concentration relative to the Morinda citrifolia fruit juice from which the concentrate was obtained.
The following materials and methods were utilized in the Bombesin research.

Bombesin BB3 [2] = molecular target: T1, Bombesin BB3; details: historical value, cited from earlier work
Adrenergic β1 = Adrenergic β1 (Homo sapiens, UniProt P08588); details: ephedrine, from research studies; cited from earlier work
Adrenergic β3 = Adrenergic β3 (Homo sapiens, UniProt P13945); details: ephedrine, from research studies; cited from earlier work
Adrenergic β2 = Adrenergic β2 (Homo sapiens, UniProt P07550); details: ephedrine, from research studies; cited from earlier work
Bombesin BB1 = Bombesin BB1 (Homo sapiens, UniProt P28336); details: historical value, Hill coefficient; cited from earlier work
Somatostatin sst5 = Somatostatin sst5 (Homo sapiens, UniProt P35346); details: historical value, Hill coefficient; cited from earlier work
Chain of Somatostatin sst5 (P35346 whole entry): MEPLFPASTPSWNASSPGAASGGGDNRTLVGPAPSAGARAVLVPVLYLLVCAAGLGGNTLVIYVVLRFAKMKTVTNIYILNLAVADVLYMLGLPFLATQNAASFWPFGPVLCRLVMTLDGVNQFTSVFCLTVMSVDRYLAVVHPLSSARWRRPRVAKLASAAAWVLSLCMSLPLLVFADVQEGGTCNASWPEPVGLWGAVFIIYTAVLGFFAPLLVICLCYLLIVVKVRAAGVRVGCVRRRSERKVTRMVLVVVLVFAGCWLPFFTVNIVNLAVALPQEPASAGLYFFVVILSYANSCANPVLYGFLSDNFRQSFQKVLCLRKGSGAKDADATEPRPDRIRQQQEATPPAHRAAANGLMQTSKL

Chain of Adrenergic β1 (P08588 whole entry): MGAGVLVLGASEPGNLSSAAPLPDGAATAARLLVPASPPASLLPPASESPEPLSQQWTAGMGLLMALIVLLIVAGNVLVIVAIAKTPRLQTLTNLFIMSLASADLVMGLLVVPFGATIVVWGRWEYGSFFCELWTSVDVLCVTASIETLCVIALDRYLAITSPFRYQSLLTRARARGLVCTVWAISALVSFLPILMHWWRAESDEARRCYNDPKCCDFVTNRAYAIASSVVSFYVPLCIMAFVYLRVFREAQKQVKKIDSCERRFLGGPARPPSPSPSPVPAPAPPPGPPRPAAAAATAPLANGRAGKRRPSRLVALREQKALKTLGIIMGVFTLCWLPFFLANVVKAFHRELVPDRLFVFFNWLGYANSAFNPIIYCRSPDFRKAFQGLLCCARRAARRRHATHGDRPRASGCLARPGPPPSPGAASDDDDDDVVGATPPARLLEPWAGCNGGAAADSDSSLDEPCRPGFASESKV
Chain of Adrenergic β3 (P13945 whole entry): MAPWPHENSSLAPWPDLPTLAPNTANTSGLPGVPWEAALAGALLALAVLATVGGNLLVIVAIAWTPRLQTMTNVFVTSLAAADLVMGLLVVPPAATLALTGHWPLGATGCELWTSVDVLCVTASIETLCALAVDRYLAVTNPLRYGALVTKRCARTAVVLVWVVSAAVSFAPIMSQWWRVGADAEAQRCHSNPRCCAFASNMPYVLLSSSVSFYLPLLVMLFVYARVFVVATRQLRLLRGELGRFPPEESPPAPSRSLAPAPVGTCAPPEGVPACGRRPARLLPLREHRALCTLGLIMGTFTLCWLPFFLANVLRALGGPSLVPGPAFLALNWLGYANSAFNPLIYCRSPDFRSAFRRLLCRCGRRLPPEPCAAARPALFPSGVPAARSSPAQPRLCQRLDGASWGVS
Chain of Adrenergic β2 (P07550 whole entry): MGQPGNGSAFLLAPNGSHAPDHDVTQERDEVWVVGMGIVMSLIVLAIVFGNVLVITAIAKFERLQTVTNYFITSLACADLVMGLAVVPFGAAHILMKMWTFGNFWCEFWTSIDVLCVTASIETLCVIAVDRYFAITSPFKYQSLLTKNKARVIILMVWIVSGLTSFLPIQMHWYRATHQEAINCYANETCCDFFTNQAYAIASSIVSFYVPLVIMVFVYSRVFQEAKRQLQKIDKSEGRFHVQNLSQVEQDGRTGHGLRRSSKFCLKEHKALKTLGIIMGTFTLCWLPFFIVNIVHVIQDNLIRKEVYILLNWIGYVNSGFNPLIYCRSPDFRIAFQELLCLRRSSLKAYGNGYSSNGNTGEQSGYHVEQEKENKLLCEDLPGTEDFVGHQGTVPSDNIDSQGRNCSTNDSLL
Chain of Bombesin BB1 (P28336 whole entry): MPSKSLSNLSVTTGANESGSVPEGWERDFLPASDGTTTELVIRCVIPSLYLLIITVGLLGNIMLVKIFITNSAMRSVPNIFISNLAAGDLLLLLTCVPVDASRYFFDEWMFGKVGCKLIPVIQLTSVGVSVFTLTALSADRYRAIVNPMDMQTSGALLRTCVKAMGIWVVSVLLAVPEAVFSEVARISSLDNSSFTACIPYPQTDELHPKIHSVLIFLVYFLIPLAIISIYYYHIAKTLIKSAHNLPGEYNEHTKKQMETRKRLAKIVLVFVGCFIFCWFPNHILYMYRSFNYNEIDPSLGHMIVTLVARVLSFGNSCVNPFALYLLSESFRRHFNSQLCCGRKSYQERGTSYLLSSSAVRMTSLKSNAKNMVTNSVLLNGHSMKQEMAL

Compound: CCCC[C@H](NC(=O)[C@H](Cc1ccccc1)NC(=O)[C@H](Cc1c[nH]cn1)NC(=O)CCNC(=O)[C@@H](NC(=O)[C@H](C)NC(=O)[C@H](Cc1c[nH]c2ccccc12)NC(=O)[C@H](CCC(N)=O)NC(=O)[C@H](N)Cc1ccccc1)C(C)C)C(N)=O [(D-Phe^6, β-Ala^11, Phe^13, Nle^14)-BN (6-14)] (H-[dF]QWAV[βAla]HF[Nle]-NH2; N-terminus and C-terminus assumed)
- IC50 (Bombesin BB3 [1]): 5.99 nM
- Historical nH (reference compound) (Bombesin BB3 [2]; Hill coefficient): 0.9
- IC50 (Bombesin BB3 [2]; read-out: Historical IC50 (reference compound)): 6.1 nM
- Ki (Bombesin BB3 [2]; read-out: Historical Ki (reference compound)): 4.1 nM

Compound: CN[C@@H](C)[C@H](O)c1ccccc1 [ephedrine]
- adrenergic β-1 response (agonist/antagonist) (Adrenergic β1): inhibits; also recorded: antagonist
- adrenergic β-3 response (agonist/antagonist) (Adrenergic β3): activating; also recorded: agonist
- adrenergic β-2 response (agonist/antagonist) (Adrenergic β2): inhibits; also recorded: antagonist

Compound: Neuromedin B
- Historical nH (reference compound) (Bombesin BB1): 0.9

Compound: Somatostatin-14
- Historical nH (reference compound; no head) (Somatostatin sst5): 0.8
